# Measured values taken from PMC7889660, “Complex precursor structures of cytolytic cupiennins identified in spider venom gland transcriptomes” (Scientific Reports, 2021).
# Read-outs that look alike come from different tables or passages of the source. Ends that are not written are not given here.
# Tests used:
# [1] = system: Drosophila melanogaster; settings: Drosophila flies, 0.05 µl injected, 50% of flies die after 24 h; cited from earlier work
# Description: Table 3 Insecticidal activities of selected cupiennins, CsTx-16 variants, neurotoxins CsTx-1, CsTx-9, and CsTx-13, and cyto-insectotoxin CIT1a. Different concentrations of peptides were dissolved in 0.1 M ammonium acetate, pH 6.1, and 0.05 µl was injected into Drosophila flies. The lethal dose (LD50, pmol/mg fly), where 50% of the flies die after 24 h, was calculated with PRISM Vers. 6.07. * Data | column: LD50 / (pmol/mg fly)
# [2] = system: Drosophila melanogaster; assay: Insecticidal bioassay with Drosophila flies, lethal dose (LD50) 24 h after injection; format: in vivo; settings: for LD50: synthetic C-terminally amidated peptide in 0.1 M ammonium acetate pH 6.1, 0.05 µl injected intrathoracically into flight muscles of female flies (1- to 7-days old), 50% of flies die after 24 h, minimum five doses, each n = 20, PRISM Vers. 6.07
# Description: The insecticidal activity of different cupiennins was investigated in a bioassay with Drosophila melanogaster and the lethal dose, where 50% of the insects die of intoxication after 24 h of injection, calculated. […] The shorter LPs such as Cu 3a, d, and Cu 4a, were with 12.4–38.5 pmol/mg fly less toxic.
# Cupiennins 3a, 3b, 4a, 6a, 6b, 6d, 7b, 8, and the two-chain CsTx-16a1b1, and CsTx-16c1d1 were synthesized (all C-terminally amidated) by GeneCust, (Dulange, Luxembourg). Bioassays using Drosophila flies were performed as described elsewhere. Briefly, all peptides were dissolved in 0.1 M ammonium acetate, pH 6.1 and 0.05 µl injected intrathoracically into the flight muscles of female flies (1- to 7-days old). For each peptide, in minimum five different peptide doses were injection into the flies (each n = 20) and also a negative control with only buffer was injected (n = 10). Calculations of the lethal dose (LD50) were done with GraphPad PRISM Vers. 6.07 (GraphPad Software, San Diego, CA, USA).
Substance,LD50 [1] [pmol/mg fly],"Toxicity ranking among tested cupiennins ([2]; Drosophila, LD50 after 24 h)",LD50 [2] [pmol/mg fly]
"Cu 1b: cytolytic linear cationic peptide, Cu 1 family, transcript C1 (GFGSLFKFLAKKVAKTVAKQAAKQGAKYIANKQMEG-NH2)",4.7,–,–
"Cu 8: Cu 8 family linear peptide of 20 residues, transcript B, synthesized by GeneCust (IWRMPKKVLKLLAAFRGKEG-NH2)",–,lowest toxicity,159.7
"Cu 6d: Cu 6 family linear peptide, synthesized by GeneCust (FINTIKLLIEKYREWKNKQSSG-NH2)",–,–,23.2
"Cu 3a: Cu 3 family linear peptide, synthesized by GeneCust (GFGSLFKFLGKKLLKTVAKQAAKKQMEG-NH2)",–,–,18.7
